Data reported in patent publication US20110123623A1, “RHAMNOLIPID MECHANISM” (priority 2009, published 2011).

Tests used:
[1] = test system: B-lymphocyte cells isolated from the spleen of balb/c mice; assay: Mouse B-cell proliferation (thymidine incorporation); type: cell-based
Protocol: T-lymphocyte cells isolated from thymus of balb/c mice weighing 17±1 g were used. Test compound and/or vehicle was incubated with the cells (4×10^6/ml) in the presence of 3 μg/ml concanavalin A (Con A) overnight. Thymidine incorporation was assessed by liquid scintillation counting. B-lymphocyte cells isolated from the spleen of balb/c mice weighing 17±1 g were used. Test compound and/or vehicle was incubated with the cells (1.5×10^6/ml) in the presence of 10 μg/ml lipopolysaccharide (LPS) in AIM-V medium pH 7.4 at 37° C., during 24 hours. [^3H]Thymidine (120 nM) was then added for an additional overnight incubation period. Thymidine incorporation was assessed by liquid scintillation counting. […] T-cells isolated from mouse thymus were inhibited at the concentration of 10 μM by 24% and in the presence of concanavalin T-cells proliferation was inhibited 43%.

female ICR mice [2] = assay: Immunostimulation (cellular): oxazolone-induced delayed type hypersensitivity; type: in vivo, mouse; conditions: oxazolone-induced DTH
Source text: Immunostimulation (cellular): Oxazolone-induced delayed type hypersensitivity of female ICR mice was negative.

female ICR mice [3] = assay: Immunosuppression (cellular): oxazolone-induced delayed type hypersensitivity; type: in vivo, mouse; conditions: oxazolone-induced DTH
Source text: Immunosuppression (cellular): Oxazolone-induced delayed type hypersensitivity of female ICR mice was negative.

C. albicans = assay: Immunomodulation activity: C. albicans challenge survival; type: in vivo, mouse; conditions: 100 mg/kg i/p 24 hours before i/v C. albicans challenge; ICR male mice
Protocol: Di-rhamnolipid W3CTS was administered i/p (100 mg/kg) to groups of 10 ICR derived male mice weighing 24±2 g at 24 hours before i/v challenge with a suspension of C. albicans (1×10^7 cfu/mouse) sufficient to result in 90-100% mortality within 10 days in vehicle treated animals. Survival of 20 percent or more (≧20) of the animals is considered significant and indicates possible immunomodulation activity. Reference agent was lipopolysaccharide 0.3 mg/kg i/p.

[4] = test system: Swiss-Webster female mice; assay: TPA/pyr induced acute dermal ear inflammation (Part B); type: in vivo, mouse
Protocol: Effects of Di-rhamnolipid W3CTS on TPA/pyr induced acute inflammation in the ears of Swiss-Webster female mice.
The aim of this study was two-fold. In Part A the potential of a single topical application of W3CTS to cause acute cutaneous irritation (up to 24 hours) was measured in a mouse ear assay system. […] The aim of Part B was to determine the effects of a single topical administration of W3CTS on acute dermal inflammation induced by TPA/pyr, Part B was designed to differentiate the ability of Di-rhamnolipid W3CTS at concentration 1 mg/ml to prevent, inhibit or reverse induced ear inflammation.
The time of maximal reduction of inflammation was dependent on the time of treatment, with respect to induction. The effect of Di-rhamnolipid W3CTS was moderate (up to 32% decrease in inflammation) but sustained. […] Post treatment reversed established inflammation by 32% at 11 hours. […] It may be possible to increase the anti-inflammatory effect of Di-rhamnolipid W3CTS by use of a different dose formulation, or by repeated treatments.

[5] = test system: female Swiss-Webster mice; assay: Induction and challenge phases of DTH in the mouse ear; type: in vivo
Source text: Effects of Di-Rhamnolipid W3CTS on the Induction and Challenge Phases of DTH in Female Swiss-Webster Mice.
The aims of this study were first, to evaluate the in-vivo effects of Di-rhamnolipid W3CTS on aspects of a T-cell mediated immune response in mice and second, to determine if Di-rhamnolipid W3CTS was a sensitizing agent. This formed one of a series of studies to evaluate the toxicity and functionality of Di-rhamnolipid W3CTS.
The model used was induced delayed-type hypersensitivity (DTH) response in the mouse ear. In general, the DTH model involves administering a sensitizing agent mixed with an adjuvant, one or more occasions to prime the immune system. One to two weeks after the final induction and boost(s), animals are re-exposed to the sensitizing antigen, with a small volume injected intradermally in the ear, to elicit a secondary response (challenge). The ear swells during the secondary T-cell mediated response, and thus the change in ear thickness from prestimulation can be quantified. The present study had several sub-components testing different components of the immune response.
Parts A & B followed the standard procedure, in which the treatment test article, Di-rhamnolipid W3CTS, was administered topically concurrent to the challenge with sensitizing agent. Additionally, the effects of Di-rhamnolipid W3CTS on development of the primary immune response were also tested (Parts C&D). Therefore it was possible to obtain preliminary information about potential activity of Di-rhamnolipid W3CTS on more than one arm of the immune system. In parts B, C, and D, the protein ovalbumin, in CFA (Complete Freund's Adjuvant) or IFA (Incomplete Freund's Adjuvant) was used as the sensitizing agent as it is a standard with well-characterized, quantifiable activity in DTH. An additional compound, DNCB (1-chloro-2,4-di-nitro benzene) with gamma interferon (IFN-gamma), was also used (Group A) in order to maximize the opportunity to characterize the activity of Di-rhamnolipid W3CTS on T-cell mediated immunity. […]

patients = assay: Treatment of patients with seborrheic dermatitis, lichen planus and dermatitis circumscripta unilocularis; type: in vivo, human
Protocol: Twelve psoriatic hospital bed patients, and one patient with seborrheic dermatitis and psoriasis, one patient with lichen planus and one with dermatitis cicumscripta unilocullaris as an out clinic patient were recruited as study volunteers.
Patients with seborhheic dermatitis, lichen planus and dermatitis unilocularis circumscripta eczematoides were cured.
This condition, confirmed with clinical appearance and histopahological findings, was treated with different standard approaches, (mostly) steroids, but condition worsened with tendency to spread further to the large wound covered by thick crust. Following the treatment with 1% Di-rhamnolipid W3CTS, eucerin ointment was introduced with overnight inclusions during four weeks. […] Patient died by natural course 15 years after treatment had been finished.

CCCCCCCC(CC(=O)O)OC(=O)CC(CCCCCCC)OC1OC(C)C(O)C(O)C1OC1OC(C)C(O)C(O)C1O (stereo not shown) [Di-rhamnolipid W3CTS]
effect on B-cell proliferation ([1]; 10 μM in 0.5% DMSO, without LPS): did not have any effect | inhibition at 10 µM ([1]; Mus musculus, B-cell, 10 μM, in the presence of LPS): ≤ 54% | Immunostimulation (cellular) (female ICR mice [2]): negative | Immunosuppression (cellular) (female ICR mice [3]): negative | immunomodulation activity (survival of 20 percent or more considered significant) (C. albicans): possible significant immunomodulation activity | decrease in inflammation (overall) ([4]; 1 mg/ml topical, maximal effect): up to 32% | topical anti-inflammatory efficacy ([4]; 1 mg/ml, 1.0% w/v, single topical administration, 24 hours time-course): effective as a topical therapeutic anti-inflammatory agent | inhibition of inflammation, concurrent treatment ([4]; at 6 hours): about 32% | reversal of established inflammation, post treatment ([4]; at 11 hours, given 2 hours after induction): 32% | protective effect, pretreatment ([4]; given one hour prior to induced inflammation): short duration as a protective agent | effect on subsequent DTH response (Part C) ([5]; concurrently administered at induction with ovalbumin/IFA): inhibit the subsequent DTH response | effect on primary immune response (Part D) ([5]; given at induction): did not show potential to enhance a primary immune response | effect on secondary immune response, DTH (Part B) ([5]; topical at challenge, ovalbumin/CFA): sustained or increased DTH response | outcome in seborhheic dermatitis, lichen planus and dermatitis unilocularis circumscripta eczematoides (patients; 1.0% eucerin ointment): cured | skin over the wound (patients; after one year): looking normal | wound healing in dermatitis circumscripta unilocularis (patients; person, 1% eucerin ointment, overnight inclusions during four weeks): The wound started to heal
